Experimental data as given in paper PMC8605905 (Oxidative Medicine and Cellular Longevity, 2021).
“Also recorded” adds a separate entry of the source.

Assays:
[1] = system: Aβ-GFP SH-SY5Y cells; assay: ROS assay (CellROX Orange) in Aβ-GFP cells; assay type: cell-based, Human; settings: tested 1.2–5 μM
Protocol: On day 1, Aβ-GFP or ∆K280 tauRD-DsRed SH-SY5Y cells were seeded into 96-well plates (2.5 × 10^4/well) and treated with retinoic acid (10 μM; Sigma-Aldrich) to prompt neuronal differentiation. […] On day 8, cells were stained with Hoechst 33342 (0.1 μg/ml; Sigma-Aldrich) for 30 min, and cell images were automatically captured at excitation/emission wavelengths of 482/[…] (GFP fluorescence) or 543/593 nm (DsRed fluorescence) using a high content analysis (HCA) system (Micro Confocal High-Content Imaging System). Image Acquisition and Analysis Software (MetaXpress) (Molecular Devices, Sunnyvale, CA, USA) was used to analyse the images. CellROX Orange (5 μM; Molecular Probes, Eugene, OR, USA) (for Aβ-GFP cells) or dichloro-dihydro-fluorescein diacetate (DCFH-DA, 10 μM; Invitrogen) (for ∆K280 tauRD-DsRed cells) was added to the cells and incubated at 37°C for 30 min. The HCA system was used to measure intracellular ROS at 531/593 nm (CellROX Orange fluorescence) or 482/536 nm (DCFH-DA fluorescence) of excitation/emission wavelengths.

[2] = system: Acetylcholinesterase (AChE); assay: AChE activity in Aβ-GFP cells; assay type: cell-based; settings: 5 μM, vs untreated cells
Protocol: (§1) Aβ-GFP or ∆K280 tauRD-DsRed SH-SY5Y cells were seeded into 6-well plates (5 × 10^5/well) and treated with retinoic acid, coumarin-chalcone derivatives, and doxycycline as previously described. On day 8, cells were collected and lysates were prepared with six freeze/thaw cycles. The supernatant was collected by centrifugation, followed by measurement of the caspase 1 activity in 50 μg aliquots of cell extract using the ICE fluorometric assay kit (BioVision, Milpitas, CA, USA). Following incubation of the mixture at 37°C for 2 h, fluorescence was measured with excitation/emission wavelengths at 400/505 nm (FLx800 fluorescence microplate reader). In addition, the collected cells were lysed by sonication. Acetylcholinesterase (AChE) activity in the supernatant was determined in 10 μg aliquots of cell extracts using the AChE activity assay kit (Sigma-Aldrich) according to the manufacture's protocol. Finally, the absorbance at 412 nm was measured using a Multiskan GO spectrophotometer (Thermo Fisher Scientific).

[3] = system: Aβ-GFP SH-SY5Y cells; assay: Real-time PCR of Aβ-GFP RNA; assay type: cell-based, Human; settings: 5 μM
Protocol: To measure the Aβ-GFP/tauRD-DsRed RNA expression on day 8, total RNA was extracted from collected cells and reverse-transcribed to cDNA (SuperScript III reverse transcriptase; Invitrogen, Waltham, MA, USA). Real-time quantitative PCR was performed using 100 ng of cDNA and the gene-specific TaqMan fluorogenic probe PN4331348 (EGFP) or customized Assays-by-Design probe for DsRed and 4326321E (HPRT1) (StepOnePlus Real-time PCR system, Applied Biosystems, Foster City, CA, USA). The RNA expression level was calculated using the formula 2^ΔCt, ΔCT = CT (control) − CT (target), in which CT indicates the cycle threshold.

[4] = system: Aβ-GFP SH-SY5Y cells; assay: High content analysis of neurite outgrowth in Aβ-GFP cells; assay type: cell-based, Human; settings: for Effect of kinase inhibitor on LM-021-improved neurite length, processes, and branches: inhibitor 10 μM on day 6, LM-021 5 μM
Protocol: (§2) On day 1, Aβ-GFP or ∆K280 tauRD-DsRed SH-SY5Y cells were plated into 24-well plates (6 × 10^4/well) followed by addition of retinoic acid. On day 2, cells were treated with coumarin-chalcone derivatives (5 or 10 μM) and with doxycycline (5 or 2 μg/ml) to induce the expression of Aβ-GFP or ∆K280 tauRD-DsRed. On day 8, 4% paraformaldehyde, 0.1% Triton X-100, and 3% BSA were used to fix, permeabilize, and block cells, respectively. Subsequently, the cells were stained with TUBB3 (neuronal class III β-tubulin) primary antibody (1 : 1000; Covance, Princeton, NJ, USA) at 4°C overnight. Goat anti-rabbit Alexa Fluor 555 secondary antibody (1 : 1000; Thermo Fisher Scientific) was then added, followed by a 3 h incubation at room temperature. Following staining nuclei with 4′,-6-diamidino-2-phenylindole (DAPI) (0.1 μg/ml; Sigma-Aldrich), the neurons were imaged by using the HCA system and analysed by using the Neurite Outgrowth Application Module (MetaXpress; Molecular Devices).
(§3) To monitor the cAMP-mediated signal transduction pathway, CRE-GFP 293 cells in 6-well plates (1 × 10^6/well) were pretreated with kinase inhibitor H-89 (LC Laboratories, Woburn, MA, USA), KN-62 (Cayman Chemical, Ann Arbor, MI, USA), U0126 (LC Laboratories), or wortmannin (LC Laboratories) (10 μM) for 4 h before forskolin or LM-021 (10 μM) addition for 5 h. GFP fluorescence/protein and total/phosphorylated PKA, CaMKII, ERK, PI3K, and CREB levels were examined. In addition, Aβ-GFP or ∆K280 tauRD-DsRed SH-SY5Y cells were treated with retinoic acid (10 μM) on day 1, followed by the addition of LM-021 (5 or 10 μM) and doxycycline (5 or 2 μg/ml) on day 2, as described. Kinase inhibitors (10 μM) were added on day 6. On day 8, the cells were collected for protein expression analysis of BDNF, BCL2 (BCL2 apoptosis regulator), and BAX (BCL2 associated X, apoptosis regulator), and total/phosphorylated PKA, CaMKII, ERK, PI3K, and CREB. Also, cells were stained with DAPI and assessed for neurite outgrowth as described above.

[5] = system: caspase 1; assay: Caspase 1 activity in Aβ-GFP cells; assay type: cell-based, Human; settings: 5 μM, vs untreated cells
Protocol: as §1

[6] = system: Aβ-GFP SH-SY5Y cells; assay: High content analysis of Aβ-GFP fluorescence; assay type: cell-based, Human
Protocol: Human neuroblastoma SH-SY5Y-derived Aβ-GFP [23] and ∆K280 tauRD-DsRed cells were kept in DMEM/nutrient mixture F12 (DMEM/F12) containing 10% FBS, 5 μg/ml blasticidin, and 100 μg/ml hygromycin (InvivoGen, San Diego, CA, USA). Doxycycline (Sigma-Aldrich) was applied to induce the expression of Aβ-GFP (5 μg/ml doxycycline) or ∆K280 tauRD-DsRed (2 μg/ml doxycycline).
On day 1, Aβ-GFP or ∆K280 tauRD-DsRed SH-SY5Y cells were seeded into 96-well plates (2.5 × 10^4/well) and treated with retinoic acid (10 μM; Sigma-Aldrich) to prompt neuronal differentiation. […] Image Acquisition and Analysis Software (MetaXpress) (Molecular Devices, Sunnyvale, CA, USA) was used to analyse the images. CellROX Orange (5 μM; Molecular Probes, Eugene, OR, USA) (for Aβ-GFP cells) or dichloro-dihydro-fluorescein diacetate (DCFH-DA, 10 μM; Invitrogen) (for ∆K280 tauRD-DsRed cells) was added to the cells and incubated at 37°C for 30 min.

[7] = system: ∆K280 tauRD-DsRed SH-SY5Y cells; assay: High content analysis of neurite outgrowth in ΔK280 tauRD-DsRed cells; assay type: cell-based, Human; settings: inhibitor 10 μM on day 6, LM-021 10 μM
Protocol: as §2, §3

[8] = system: Aβ-GFP SH-SY5Y cells; assay: Western blot in Aβ-GFP SH-SY5Y cells; assay type: cell-based, Human; settings: inhibitor 10 μM on day 6, LM-021 5 μM
Protocol: as §3
(§4) Total proteins from CRE-GFP 293 and Aβ-GFP, ∆K280 tauRD-DsRed SH-SY5Y cells were extracted using lysis buffer (50 mM Tris-HCl (pH 8.0), 150 mM NaCl, 1 mM EDTA (pH 8.0), 1 mM EGTA (pH 8.0), 0.1% SDS, 0.5% sodium deoxycholate, 1% Triton X-100) containing phosphatase and protease inhibitor cocktails (Sigma-Aldrich). Protein concentrations were measured using a protein assay kit (Bio-Rad, Hercules, CA, USA), and 20 μg of proteins was separated with 10% SDS-PAGE and blotted onto polyvinylidene difluoride (PVDF) membranes (Sigma-Aldrich). After blocking, the membrane blot was incubated with primary antibody against GFP (1 : 500; Santa Cruz Biotechnology, Santa Cruz, CA, USA), PKA (1 : 1000; R&D Systems, Minneapolis, MN, USA), p-PKA (T197) (1 : 1000; Cell Signaling, Danvers, MA, USA), ERK (1 : 500; Cell Signaling), p-ERK (T202/Y204) (1 : 500; Cell Signaling), CaMKII (1 : 1000; Santa Cruz Biotechnology), p-CaMKII (T286) (1 : 1000; Cell Signaling), CREB (1 : 1000; Santa Cruz Biotechnology), p-CREB (S133) (1 : 1000; Millipore, Billerica, MA, USA), BDNF (1 : 500; Santa Cruz Biotechnology), BCL2 (1 : 500; BioVision), BAX (1 : 500; BioVision), GAPDH (glyceraldehyde-3-phosphate dehydrogenase, as a loading control) (1 : 1000; MDBio, Taipei, Taiwan), or β-tubulin (1 : 1000, Sigma-Aldrich, as a loading control). The immune complexes were visualized using horseradish peroxidase-conjugated goat anti-mouse or goat anti-rabbit IgG antibody (1 : 5000, GeneTex, Irvine, CA, USA) and a chemiluminescent substrate (Millipore).

[9] = system: ∆K280 tauRD-DsRed SH-SY5Y cells; assay: Western blot in ΔK280 tauRD-DsRed SH-SY5Y cells; assay type: cell-based, Human; settings: inhibitor 10 μM on day 6, LM-021 10 μM
Protocol: as §3, §4

[10] = system: CRE-GFP 293 cells; assay: Western blot in CRE-GFP 293 cells; assay type: cell-based, Human; settings: inhibitor 10 μM, LM-021 10 μM, without Ca2+ ionophore, immunoblot
Protocol: as §3
Total proteins from CRE-GFP 293 and Aβ-GFP, ∆K280 tauRD-DsRed SH-SY5Y cells were extracted using lysis buffer (50 mM Tris-HCl (pH 8.0), 150 mM NaCl, 1 mM EDTA (pH 8.0), 1 mM EGTA (pH 8.0), 0.1% SDS, 0.5% sodium deoxycholate, 1% Triton X-100) containing phosphatase and protease inhibitor cocktails (Sigma-Aldrich). Protein concentrations were measured using a protein assay kit (Bio-Rad, Hercules, CA, USA), and 20 μg of proteins was separated with 10% SDS-PAGE and blotted onto polyvinylidene difluoride (PVDF) membranes (Sigma-Aldrich). […]

[11] = system: CRE-GFP 293 cells; assay: CRE-GFP 293 reporter cell assay (flow cytometry); assay type: cell-based, Human; settings: for Effect of kinase inhibitor on LM-021-activated GFP levels: inhibitor 10 μM 4 h before LM-021 10 μM, presence or absence of Ca2+ ionophore
Text: Using the pCRE-MetLuc2-Reporter plasmid (Clontech, Mountain View, CA, USA) as a template, the DNA fragment containing the cAMP response element (CRE) motifs and TATA-like promoter (PTAL) flanked by MluI and AgeI restriction sites was amplified by PCR using sense ([…], MluI site underlined) and antisense ([…], AgeI site underlined) primers. The amplified CRE-PTAL promoter fragment was cloned into pGEM-T Easy (Promega, Madison, WI, USA) and sequenced. The CRE-PTAL-containing MluI/AgeI fragment and GFP-containing AgeI/NotI fragment (from pEGFP-N1; Clontech) were subcloned into MluI- and NotI-digested pcDNA5/FRT/TO (Novagen, Madison, WI, USA). The resulting construct with CRE-PTAL-driving GFP was used to establish 293 GFP reporter cells by targeting insertion into Flp-In-293 cells according to the supplier's instructions (Invitrogen). The cells were grown in a medium containing 5 μg/ml blasticidin and 100 μg/ml hygromycin.
On day 1, CRE-GFP 293 cells were seeded into 48-well plates (5 × 10^4/well). After 24 h, cells were treated with Ca^2+ ionophore (2 μM) (Sigma-Aldrich) for 0–24 h. Cell viability was measured using 3,(4,5-dimethylthiazol-2-yl)-2,5-diphenyltetrazolium bromide (MTT) assay (Sigma-Aldrich). The absorbance of the insoluble purple formazan dye was quantified at 570 nm on a μQuant microplate spectrophotometer (Bio-Tek). In addition, the cells were treated with the Ca^2+ ionophore A23187 (0.5–10 μM) (Sigma-Aldrich) for 5 h, followed by analysis of GFP fluorescence by flow cytometry (Becton–Dickinson, Franklin Lakes, NJ, USA) with excitation/emission wavelengths at 488/507 nm. To monitor CREB activation, cells were treated with forskolin or coumarin-chalcone derivatives (5–10 μM) in the presence or absence of Ca^2+ ionophore (2 μM) for 5 h, and GFP fluorescence was analysed.
as §3

## COc1cc(/C=C/C(=O)CC(=O)/C=C/c2ccc(O)c(OC)c2)ccc1O [Curcumin, reference compound]
[1]
  Concentration effectively decreasing ROS levels caused by Aβ overexpression: 2.5 to 5 µM
[2]
  AChE activity: reduced
[3]
  Aβ-GFP RNA levels: did not significantly modify
[4]; 5 μM
  Neurite length, processes, and branches: successfully ameliorated
[5]
  Caspase 1 activity: reduced
[6]; Homo sapiens, SH-SY5Y, read-out: EC50 in Aβ aggregation inhibition (GFP fluorescence)
  EC50: 6.1 µM
[6]; tested 1.2–5 μM, day 8
  Concentration significantly augmenting green fluorescence intensity (Aβ-GFP): 2.5 to 5 µM

## O=S(=O)(NCCNC/C=C/c1ccc(Br)cc1)c1cccc2cnccc12 [H-89]
[7]
  Effect of kinase inhibitor on LM-021-ameliorated neurite length and branch length: reversed these effects
[8]
  Effect of kinase inhibitor on LM-021-upregulated kinase phosphorylation: mitigated the increase of p-PKA
  Effect of kinase inhibitor on LM-021 increase in p-CREB, pro-BDNF, m-BDNF, and BCL2: attenuated the increase
[9]
  Effect of kinase inhibitor on LM-021-upregulated kinase phosphorylation: reduced the upregulation of p-PKA
  Effect of kinase inhibitor on LM-021 upregulation of p-CREB, pro-BDNF, m-BDNF, and BCL2: attenuated the upregulation
[10]
  Effect of kinase inhibitor on increased p-CREB and GFP protein levels: significantly reduced
[4]
  Effect of kinase inhibitor on LM-021-improved neurite length, processes, and branches: counteracted these improvements
[11]
  Effect of kinase inhibitor on LM-021-activated GFP levels: attenuated the GFP levels
[11]; inhibitor 10 μM 4 h before forskolin 10 μM, presence of Ca2+ ionophore
  Effect of kinase inhibitor on forskolin-activated GFP level: attenuated the GFP level

## CN([C@@H](Cc1ccc(OS(=O)(=O)c2cccc3cnccc23)cc1)C(=O)N1CCN(c2ccccc2)CC1)S(=O)(=O)c1cccc2cnccc12 [KN-62]
[7]
  Effect of kinase inhibitor on LM-021-ameliorated neurite length and branch length: reversed these effects
[8]
  Effect of kinase inhibitor on LM-021-upregulated kinase phosphorylation: mitigated the upregulation of p-CaMKII; also recorded: normalized p-ERK
  Effect of kinase inhibitor on LM-021 increase in p-CREB, pro-BDNF, m-BDNF, and BCL2: attenuated the increase
[9]
  Effect of kinase inhibitor on LM-021-upregulated kinase phosphorylation: diminished the increase of p-CaMKII
  Effect of kinase inhibitor on LM-021 upregulation of p-CREB, pro-BDNF, m-BDNF, and BCL2: attenuated the upregulation
[10]
  Effect of kinase inhibitor on increased p-CREB and GFP protein levels: significantly reduced
[4]
  Effect of kinase inhibitor on LM-021-improved neurite length, processes, and branches: counteracted these improvements
[11]
  Effect of kinase inhibitor on LM-021-activated GFP levels: attenuated the GFP levels
